Laboratory results reported in BigSolDB 2.1.

N#CN=C(N)N
solubility (mole fraction)
Details | 283.15 K | 288.15 K | 293.15 K | 298.15 K | 303.15 K | 308.15 K | 313.15 K | 318.15 K | 323.15 K
in acetone | 0.00634 | 0.00658 | 0.00677 | 0.00754 | 0.00836 | 0.0102 | 0.0112 | 0.0133 | 0.0154
in acetonitrile | 0.00219 | 0.00226 | 0.00245 | 0.00273 | 0.00296 | 0.00324 | 0.00364 | 0.00447 | 0.00528
in ethanol | 0.00786 | 0.00861 | 0.00936 | 0.0102 | 0.0109 | 0.0125 | 0.0142 | 0.017 | 0.0206
